Results published in paper PMC5035018, “Arachidonic Acid Metabolite 19(S)-HETE Induces Vasorelaxation and Platelet Inhibition by Activating Prostacyclin (IP) Receptor” (PLoS ONE, 2016).

Biological target: T1, prostacyclin (IP) receptor (Homo sapiens, UniProt P43119)
T1 construct: gene PTGIR; human IP receptor cDNA expressed in COS-1 cells
Test: [3H]-iloprost competition radioligand binding on transfected COS-1 cells (also cAMP EC50 […])
Format: cell-based

T1 sequence (P43119 1-383): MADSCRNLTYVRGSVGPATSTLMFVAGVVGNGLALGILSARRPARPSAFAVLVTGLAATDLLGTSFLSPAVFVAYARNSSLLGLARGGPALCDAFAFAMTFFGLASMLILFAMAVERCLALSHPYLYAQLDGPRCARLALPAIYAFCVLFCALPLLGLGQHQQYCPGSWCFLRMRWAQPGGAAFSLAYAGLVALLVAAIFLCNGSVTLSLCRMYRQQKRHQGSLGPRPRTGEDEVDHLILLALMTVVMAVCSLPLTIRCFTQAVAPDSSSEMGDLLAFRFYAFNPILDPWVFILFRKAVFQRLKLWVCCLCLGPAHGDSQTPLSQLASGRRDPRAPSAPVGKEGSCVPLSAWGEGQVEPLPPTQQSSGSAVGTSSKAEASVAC

Ki: 660 nM
SMILES: C[C@H](O)CCC/C=C\C/C=C\C/C=C\C/C=C\CCCC(=O)O [19(S)-HETE, 19(S)-hydroxy-5Z,8Z,11Z,14Z-eicosatetraenoic acid]
